Like-named read-outs stand apart in the source and are kept apart here.
Key:
[1] = test system: DAT; assay: DAT uptake inhibition in rat brain synaptosomes; format: biochemical; settings: for DAT/SERT ratio: (DAT IC50)^−1/(SERT IC50)^−1, higher values indicate greater DAT selectivity
[2] = Plasma pharmacokinetics of MDPV and metabolites after i.p. MDPV administration; settings: rat plasma
[3] = test system: NET; assay: NET uptake inhibition in rat brain synaptosomes; format: biochemical; settings: relative to cocaine
[4] = test system: male Sprague–Dawley rats; settings: cited from earlier work
[5] = cited from earlier work
[6] = test system: SERT; assay: SERT uptake inhibition in rat brain synaptosomes; format: biochemical; settings: relative to cocaine
[7] = test system: CYP 2D6; settings: read-out: CYP 2D6 inhibition IC50; in vitro; cited from earlier work
[8] = test system: extracellular dopamine in nucleus accumbens; settings: rats, cited from earlier work; for Elevation in extracellular dopamine: i.v. 0.3 mg/kg MDPV, 3.0 mg/kg methylone
[9] = test system: DAT; settings: S-MDPV versus R-MDPV; cited from earlier work
[10] = test system: extracellular 5-HT in nucleus accumbens; settings: rats; i.v. 3.0 mg/kg methylone; cited from earlier work
[11] = test system: male Sprague–Dawley rats; assay: Locomotor activity; format: in vivo, rat; settings: rats undergoing microdialysis; i.v. 3 mg/kg (after 1.0 mg/kg at time zero)
[12] = test system: extracellular dopamine in nucleus accumbens; assay: In vivo microdialysis in nucleus accumbens, dialysate dopamine; settings: rat nucleus accumbens; i.v. 3 mg/kg (after 1.0 mg/kg at time zero)
[13] = i.p. MDPV 0.5 mg/kg, mean±SEM, N=6
[14] = i.p. MDPV 1.0 mg/kg, mean±SEM, N=6
[15] = i.p. MDPV 2.0 mg/kg, mean±SEM, N=6
[16] = i.p. MDPV 2.0 mg/kg, mean±SEM, N=6, listed as MPDV

With `CCCC(C(=O)c1ccc(O)c(OC)c1)N1CCCC1` (centres unmarked) [4-OH-3-MeO-PV, 4-hydroxy-3-methoxypyrovalerone] the DAT/SERT ratio [1] was >12, the AUC [2, 13] was 14,657±2,577 min μg/L and the Cmax [2, 13] was 57 ± 7 ng/mL. The Tmax [2, 13] was 2.8 ± 0.45 h, the AUC [2, 14] was 28,168±3,373 min μg/L and the Cmax [2, 14] was 135 ± 23 ng/mL. The Tmax [2, 14] was 4.33 ± 0.4 h, the AUC [2, 15] was 51,925±7,946 min μg/L and the Cmax [2, 15] was 198 ± 31 ng/mL. For the same compound, the Tmax [2, 15] was 4 ± 0.9 h.

For `CCC(C(=O)c1ccccc1)N1CCCC1` (stereo not drawn) [α-PBP, α-pyrrolidinobutiophenone], the DAT/SERT ratio [1] was >159.

In the case of `CNC(C)C(=O)c1ccc(C)cc1` (centres unmarked) [Mephedrone, 4-methyl-N-methylcathinone, reference compound], the DAT/SERT ratio [1] is reported as 0.55.

With `COC(=O)[C@H]1[C@@H](OC(=O)c2ccccc2)C[C@@H]2CC[C@H]1N2C` [Cocaine, reference compound] the DAT/SERT ratio [1] was 1.48.

For `CCCC(C(=O)c1ccccc1)N1CCCC1` (stereo not drawn) [α-PVP, α-pyrrolidinovalerophenone], the DAT/SERT ratio [1] was >833.

For `CCCC(C(=O)c1ccc2c(c1)OCO2)N1CCCC1` (centres unmarked) [MDPV, 3,4-methylenedioxypyrovalerone], the “Potency as inhibitor at NET compared to cocaine” value [3] was “tenfold more potent”, the DAT/SERT ratio [1] was 816.82 and the “Potency as inhibitor at DAT compared to cocaine” value ([1]; rat brain synaptosomes, relative to cocaine) was 50 fold. The AUC [2, 13] was 1,114 min μg/L, the Cmax [2, 13] was 20 ± 5 ng/mL and the Tmax [2, 13] was 0.167 ± 0 h. For the same compound, the t1/2 [2, 13] was 1.53 ± 0.12 h, the AUC ([2]; i.p. MDPV 0.5 mg/kg, mean±SEM, N=6, listed as MPDV) was 1,114±330 min μg/L and the AUC [2, 14] was 2,858±859 min μg/L. It also gave a Cmax [2, 14] of 54 ± 18 ng/mL, a Tmax [2, 14] of 0.167 ± 0 h and a t1/2 [2, 14] of 1.32 ± 0.217 h. The AUC [2, 15] was 8,726 min μg/L, the Cmax [2, 15] was 135 ± 29 ng/mL and the Tmax [2, 15] was 0.167 ± 0 h. The AUC [2, 16] was 8,726±1,877 min μg/L, the t1/2 [2, 16] was 1.65 ± 0.233 h and the “Time at which Cmax is achieved” value ([2]; i.p. MDPV (0.5, 1, 2 mg/kg)) was ≤ 10 min. For the same compound, the Cmax ([2]; read-out: Cmax (molar), i.p. MDPV 2 mg/kg) was ~500 nM, the “Potency as locomotor stimulant compared to cocaine” value [4] was “about tenfold more potent” and the “Half-life (t1/2)” value ([5]; rat plasma, 2 mg/kg s.c. MDPV) was “about 80 min”. The “Plasma Cmax” value ([5]; rat, 2 mg/kg s.c. MDPV) was 271 ng/mL, the “Time of maximal plasma concentration (Cmax) after injection” value ([5]; rat, s.c. MDPV (0.5, 1, 2 mg/kg)) was 15 to 20 min and the Cmax ([5]; read-out: Plasma Cmax (molar), rat, 2 mg/kg s.c. MDPV) was ~1000 nM. For the same compound, the “Potency as inhibitor at SERT compared to cocaine” value [6] was “tenfold less potent”, the IC50 [7] was 1300 nM and the “Elevation in extracellular dopamine” value [8] was “threefold”. For the same compound, the “Potency to increase dialysate dopamine compared to cocaine” value ([8]; i.v. administration) was “tenfold more potent”.

For `CCC[C@@H](C(=O)c1ccc2c(c1)OCO2)N1CCCC1` [S-MDPV], the “Potency at inhibiting DAT compared to R-MDPV” value [9] is listed as 100 times.

In the case of `CC(C(=O)c1ccccc1)N1CCCC1` (stereo not drawn) [α-PPP, α-pyrrolidinopropiophenone], the DAT/SERT ratio [1] is reported as >50.

In the case of `CNC(C)C(=O)c1ccc2c(c1)OCO2` (centres unmarked) [Methylone, 3,4-methylenedioxy-N-methylcathinone, reference compound], the DAT/SERT ratio [1] is given as 0.77, the “Elevation in extracellular 5-HT” value [10] is given as “tenfold” and the “Elevation in extracellular dopamine” value [8] is given as “threefold”.

In the case of `CCCC(C(=O)c1ccc(O)c(O)c1)N1CCCC1` (centres unmarked) [3,4-Catechol-PV, 3,4-dihydroxypyrovalerone], the Effect on ambulation [11] is reported as “no change in ambulation”, the AUC [2, 13] is reported as 2,822±415 min μg/L and the Cmax [2, 13] is reported as 14 ± 2 ng/mL. For the same compound, the Tmax [2, 13] was 2.67 ± 0.417 h, the AUC [2, 14] was 8,317±589 min μg/L and the Cmax [2, 14] was 36 ± 4 ng/mL. The Tmax [2, 14] was 3.15 ± 0.983 h, the AUC [2, 15] was 12,762±1,625 min μg/L and the Cmax [2, 15] was 46 ± 9 ng/mL. For the same compound, the Tmax [2, 15] was 3.43 ± 0.417 h and the “Effect on extracellular dopamine” value [12] was “small, albeit significant, elevations”.

Work on `CC(N)Cc1ccccc1` (centres unmarked) [Amphetamine, reference compound] yielded a DAT/SERT ratio [1] of 36.75.
